Measurements as given in patent publication US10888864B2, “Electrochemical metabolic activity detecting device” (The Governing Council of the University of Toronto, priority 2014, dated 2021).
≈ marks a conversion by molar mass, not a printed value.

Experiments:
K. pneumoniae [1] = assay: time required for antibiotics to hinder metabolic activity (resazurin fluorescence); assay type: cell-based, Klebsiella pneumoniae; conditions: K. pneumoniae 1×10^5 cfu/μL, antibiotic 100 μg/mL, LB media, 1 mM resazurin, 37° C., FIG. 16
Procedure: In order to choose a suitable incubation period for the susceptibility test, the time required for the antibiotics to begin inhibiting bacterial metabolic activity was investigated. […] The increase in fluorescence induced by the conversion of resazurin by metabolically active bacteria was recorded.

K. pneumoniae [2] = assay: standard microdilution assay with a 24 hour incubation; assay type: cell-based, Klebsiella pneumoniae; conditions: FIG. 5B; for MIC90: Klebsiella pneumoniae, 24 hour incubation
Procedure: (§1) An antibiotic susceptibility microdilution assay was also performed using the example device. […] After 24 hours, the absorbance at 600 nm was measured.
(§2) As this strain produces a beta lactamase, resistance to ampicillin, a beta-lactam antibiotic is expected.

E. coli (UPEC) = assay: on-chip electrochemical (resazurin) antibiotic susceptibility assay in undiluted urine; assay type: cell-based, Escherichia coli
Procedure: (§3) The performance of the example device for electrochemical detection in urine was investigated. Human urine (BioreclamationlVT) was centrifuged at 5000 g for 5 min to remove large particulates. E. coli and K. pneumoniae were diluted to 100 cfu/μL and spiked in the urine. Samples (200 μL) were introduced at 20 μL/min. […] Air was flushed through the device to form the wells followed by FC-40 (200 μL) (Sigma Aldrich, St. Louis, Mo.). Thus the total volume of all solutions introduced is 600 μL which requires 30 min to process at 20 μL/min. The device was incubated in a water bath at 37° C. for 1 hour. 10 minutes were required to scan the leads. Thus the total time for the assay from sample introduction to readout was 1 hour and 40 minutes.
(§4) Other studies were carried out to assess the suitability of the example device to rapidly determine the antibiotic resistance profile of bacteria in undiluted urine.
(§5) E. coli (UPEC) and K. pneumoniae present at 100 cfu/μL in undiluted urine were introduced into the example device. After capture, a culture medium, resazurin, and either ampicillin or ciprofloxacin were introduced. FIGS. 5C and 5D show the electrochemical signal obtained as a function of antibiotic concentration after a 1 hour incubation at 37° C.
As this strain produces a beta lactamase, resistance to ampicillin, a beta-lactam antibiotic is expected. […]

E. coli [3] = assay: standard microdilution assay with a 24 hour incubation; assay type: cell-based, Escherichia coli; conditions: absorbance at 600 nm, FIG. 5A
Procedure: as §1, §2

K. pneumoniae [4] = assay: on-chip electrochemical (resazurin) antibiotic susceptibility assay in undiluted urine; assay type: cell-based, Klebsiella pneumoniae; conditions: K. pneumoniae 100 cfu/μL in undiluted urine, 1 hour incubation at 37° C., FIG. 5D
Procedure: as §3, §4, §5, §2

E. coli [5] = assay: on-chip electrochemical antibiotic susceptibility assay in unpurified urine; assay type: cell-based, Escherichia coli; conditions: E. coli 100 cfu/μL in undiluted unpurified urine, 10 μm pre-filter, 37° C. for 1 hour, FIG. 5E
Procedure: The performance of the example device was also investigated for electrochemical detection in unpurified urine. E. coli were diluted to 100 cfu/μL and spiked in the unpurified human urine (BioreclamationlVT). The spiked urine (200 μL) was passed through a 10 μm filter to remove large particulates and directly introduced at 20 μL/min into the chip. […] Air was flushed through the device to form the wells followed by FC-40 (Sigma Aldrich, St. Louis, Mo.). The device was incubated in a water bath at 37° C.
A series of experiments were also performed to determine the antibiotic susceptibility of bacteria in unpurified urine. […] Currents are normalized to the maximum value. Error bars represent standard error.
E. coli were spiked directly into undiluted and unpurified urine at 100 cfu/μL. The sample was passed through a 10 μm filter that removed large particulates while allowing bacteria to pass. FIG. 18 illustrates the effect of pre-filter size on recovery of bacteria spiked in undiluted urine. […] No appreciable signal change was found when using a blank control sample of unpurified urine (see FIG. 4, discussed above).

| SMILES | fluorescence signal (resazurin conversion) in presence of antibiotic (K. pneumoniae [1]) | susceptibility call by standard microdilution assay (K. pneumoniae [2]) | MIC90 (K. pneumoniae [2]) [µg/mL] | effect on metabolism of E. coli (electrochemical scan) (E. coli (UPEC); 1 μg/mL antibiotic, E. coli in urine at 100 CFU/μL, 1 mM resazurin, 60 min at 37° C., FIG. 19B) | minimum antibiotic concentration that inhibits 90% of bacterial growth (MIC90) (E. coli [3]) | electrochemical signal with increasing antibiotic concentration / susceptibility call (K. pneumoniae [4]) | antibiotic concentration at which the bacteria are susceptible (electrochemical signal) (E. coli (UPEC); E. coli (UPEC) 100 cfu/μL in undiluted urine, 1 hour incubation at 37° C., FIG. 5C) | antibiotic concentration at which E. coli are susceptible (electrochemical signal) (E. coli [5]) [µg/mL] |
| --- | --- | --- | --- | --- | --- | --- | --- | --- |
| CC1(C)S[C@@H]2[C@H](NC(=O)[C@H](N)c3ccccc3)C(=O)N2[C@H]1C(=O)O [ampicillin] | fluorescence increases | resistant | > 100 | insufficient to inhibit the metabolism | 16 µg/mL | approximately constant | – | – |
| O=C(O)c1cn(C2CC2)c2cc(N3CCNCC3)c(F)cc2c1=O [ciprofloxacin] | – | susceptible | 2 (≈ 6.04 µM) | – | less than 0.1 μg/mL | susceptible | above 1 μg/mL | ≥ 1 |
